Consider twelve molecules from ChEMBL document CHEMBL5726667, “Substituted pyrrolo[2,3-b]pyrazines and substituted pyrazolo[3,4-b]pyridines as ITK and JAK kinase inhibitors” (2017).

The target of assay [1] is T1, Tyrosine-protein kinase ITK/TSK (Homo sapiens, UniProt Q08881).
T1 sequence (Q08881 whole entry): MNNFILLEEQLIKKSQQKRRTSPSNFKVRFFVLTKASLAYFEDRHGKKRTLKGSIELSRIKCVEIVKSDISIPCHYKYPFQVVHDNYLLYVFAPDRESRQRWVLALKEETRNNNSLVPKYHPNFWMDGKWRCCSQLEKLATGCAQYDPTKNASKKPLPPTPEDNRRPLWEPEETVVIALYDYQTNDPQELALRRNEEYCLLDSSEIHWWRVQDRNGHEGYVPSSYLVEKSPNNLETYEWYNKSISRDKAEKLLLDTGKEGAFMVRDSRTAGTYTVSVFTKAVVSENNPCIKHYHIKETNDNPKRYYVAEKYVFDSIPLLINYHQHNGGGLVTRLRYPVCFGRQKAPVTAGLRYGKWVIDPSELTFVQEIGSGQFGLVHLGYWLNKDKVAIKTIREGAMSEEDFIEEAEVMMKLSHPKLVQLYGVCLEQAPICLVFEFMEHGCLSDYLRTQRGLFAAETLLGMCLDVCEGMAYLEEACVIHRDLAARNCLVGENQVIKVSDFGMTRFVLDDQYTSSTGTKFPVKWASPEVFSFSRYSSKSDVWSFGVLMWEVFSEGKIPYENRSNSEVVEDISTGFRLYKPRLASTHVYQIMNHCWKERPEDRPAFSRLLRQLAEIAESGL
Description: In Vitro Inhibition Assay: ITK and JAK3 Kinase assay procedures:Enzyme was incubated with substrate peptide in reaction buffer in the presence and absence of test compounds or Staurosporine. All additions were done on ice, followed by the addition of ATP mix. Wells were uniformly mixed using an Eppendorff plate shaker and incubated at 30° C. for 20 min, and stopped by the addition of 5 μL of 3% ….
Description: (§1) All additions were done on ice, followed by the addition of ATP mix. Wells were uniformly mixed using an Eppendorff plate shaker and incubated at 30° C. for 20 min, and stopped by the addition of 5 μL of 3% phosphoric acid. Volume was increased to 100 μL by adding 0.8% phosphoric acid which was then transferred to PC filter mats (Millipore), pre-equilibrated with 70% ethanol and water. Plates were washed thrice with 100 μL 0.8% phosphoric acid and dried for an hour at 60° C. 100 μL scintillation fluid was added into each well and reading taken in Perkin Elmer TOPCOUNT beta counter.

Assay [2] concerns the target T2, Tyrosine-protein kinase JAK3 (Homo sapiens, UniProt P52333).
T2 sequence (P52333 whole entry): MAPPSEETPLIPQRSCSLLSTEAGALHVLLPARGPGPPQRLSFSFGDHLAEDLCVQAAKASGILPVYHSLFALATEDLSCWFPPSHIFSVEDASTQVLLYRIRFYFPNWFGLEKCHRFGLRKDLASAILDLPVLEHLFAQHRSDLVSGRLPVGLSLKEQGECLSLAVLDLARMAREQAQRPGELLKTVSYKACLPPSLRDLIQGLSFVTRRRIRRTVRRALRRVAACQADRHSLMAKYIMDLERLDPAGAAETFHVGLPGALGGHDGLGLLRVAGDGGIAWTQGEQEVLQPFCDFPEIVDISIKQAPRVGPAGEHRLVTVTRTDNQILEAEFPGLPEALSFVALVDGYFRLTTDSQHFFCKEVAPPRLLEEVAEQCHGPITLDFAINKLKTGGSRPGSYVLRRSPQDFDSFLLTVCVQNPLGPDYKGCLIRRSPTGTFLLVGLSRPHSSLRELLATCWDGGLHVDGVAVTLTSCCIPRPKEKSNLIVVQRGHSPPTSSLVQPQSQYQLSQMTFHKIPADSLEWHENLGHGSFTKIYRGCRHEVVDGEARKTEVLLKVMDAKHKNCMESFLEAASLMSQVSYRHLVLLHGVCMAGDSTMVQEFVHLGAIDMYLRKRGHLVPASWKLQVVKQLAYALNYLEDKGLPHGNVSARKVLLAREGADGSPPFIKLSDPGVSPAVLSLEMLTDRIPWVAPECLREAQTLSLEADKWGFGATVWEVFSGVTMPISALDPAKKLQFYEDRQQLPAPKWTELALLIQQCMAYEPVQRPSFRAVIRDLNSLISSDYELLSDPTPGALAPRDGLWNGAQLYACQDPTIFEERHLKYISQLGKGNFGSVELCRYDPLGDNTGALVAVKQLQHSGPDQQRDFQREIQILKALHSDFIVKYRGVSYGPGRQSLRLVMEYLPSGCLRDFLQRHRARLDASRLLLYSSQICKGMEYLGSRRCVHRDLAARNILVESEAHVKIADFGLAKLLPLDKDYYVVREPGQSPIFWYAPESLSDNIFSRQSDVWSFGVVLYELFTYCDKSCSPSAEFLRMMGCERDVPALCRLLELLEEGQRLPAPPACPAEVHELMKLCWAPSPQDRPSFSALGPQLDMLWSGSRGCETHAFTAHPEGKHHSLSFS
The assay is described as above.
Description: as §1

In general, IC50 refers to the midpoint of a concentration-inhibition curve. A high value points to weaker potency. Regarding `C=CC(=O)Nc1cccc(-c2cnc3c(c2)CC(=O)N3)c1`, the IC50 in assay [1] and in assay [2] was above 100 nM in each case.
For the molecule `CC/C=C/C(=O)Nc1cccc(-c2cnc3[nH]nc(C)c3c2)c1`, the IC50 in assay [1] and in assay [2] was above 100 nM in each case.
In the case of `C=CC(=O)Nc1cccc(-c2cnc3[nH]ccc3c2)c1`, the 50% inhibitory concentration (IC50) in assay [1] and in assay [2] was above 1000 nM each time.
As for `Cc1c[nH]c2ncc(-c3cccc(NC(=O)/C=C/N(C)C)c3)cc12`, the half-inhibitory concentration (IC50) in assay [1] and in assay [2] was above 1000 nM throughout.
With `CC/C=C/C(=O)Nc1cc(-c2cnc3[nH]cc(C)c3c2)ccc1Cl`, the IC50 in assay [1] and in assay [2] was above 100 nM in each case.
On to `Cc1c[nH]c2ncc(-c3ccc(Cl)c(NC(=O)/C=C/N(C)C)c3)cc12`, for which the IC50 in assay [1] and in assay [2] was above 1000 nM in each case.
Take `C=CC(=O)Nc1cccc(-c2cnc3[nH]cc(-c4cc5ccc(Cl)cc5[nH]4)c3n2)c1`: the half-inhibitory concentration (IC50) in assay [1] and in assay [2] was above 100 nM in each case.
Take `CC/C=C/C(=O)Nc1cccc(-c2cnc3[nH]cc(C)c3c2)c1`: the IC50 in assay [1] and in assay [2] was above 1000 nM throughout.
Consider `C=CC(=O)Nc1cccc(-c2cnc3[nH]cc(-c4cc(F)cc(F)c4OC)c3n2)c1`, for which the concentration for half-maximal inhibition (IC50) in assay [1] and in assay [2] was above 100 nM in each case.
Turning to `Cc1c[nH]c2ncc(Nc3cccc(CC#N)c3)cc12`, the IC50 in assay [1] and in assay [2] was above 1000 nM throughout.
On to `C=CC(=O)Nc1cccc(-c2cnc3[nH]ccc3n2)c1`, for which the half-inhibitory concentration (IC50) in assay [1] and in assay [2] was above 1000 nM throughout.
In the case of `COc1c(F)cc(F)cc1-c1c[nH]c2ncc(-c3cc(NC(=O)/C(C)=C/C(C)(C)C)ccc3F)cc12`, the IC50 in assay [1] and in assay [2] was below 100 nM throughout.
